# Measurements published in article PMC5453931, “Cathelicidin-trypsin inhibitor loop conjugate represents a promising antibiotic candidate with protease stability” (Scientific Reports, 2017).
# Where a SMILES comes first, the peptide text is derived from it. Bridges are numbered along the chain shown (N, C = ends).
# Tests used:
# [1] = system: E. coli 08040726; assay: MIC, two-fold broth microdilution (second listing of the strain number); type: cell-based; conditions: Gram-negative, MH broth, 37 °C, 18 h, mean of three independent experiments in duplicates
# Description: (§1) A two-fold broth microdilution method described in our previous paper was used to determine the antimicrobial activities of parental and hybrid peptides. More than 30 strains including Gram-negative bacteria, Gram-positive bacteria and fungi were used in the current assay, in which the standard strains were stored in our lab and the clinical strains were collected from local hospitals. Briefly, bacteria were incubated in Mueller-Hinton broth (MH broth) at 37 °C to exponential phase and diluted to 10^6 CFU/mL. A serial dilution of peptide sample were prepared in 96-well microtiter plates (50 μL) and mixed with equal volume of microbial inoculums (50 μL). The plate was slowly shaken in the microbial incubator, and measured at A595 after incubation at 37 °C for 18 h. The minimal concentrations at which no microbial growth occurred were recorded as MIC (minimal inhibitory concentration) values. The traditional antibiotic ampicillin was used as positive control. The results are shown in an average of the MICs obtained from three independent experiments.
# [2] = system: Staphylococcus epidermidis; assay: MIC, two-fold broth microdilution; type: cell-based; conditions: Gram-positive; two-fold broth microdilution, MH broth, 37 °C, 18 h; mean of three independent experiments in duplicates
# Description: as §1
# [3] = system: E. Coli 08032813; assay: MIC, two-fold broth microdilution; type: cell-based; conditions: Gram-negative; two-fold broth microdilution, MH broth, 37 °C, 18 h; mean of three independent experiments in duplicates
# Description: as §1
# [4] = system: Vibrio Parahaemolyticus; assay: MIC, two-fold broth microdilution; type: cell-based; conditions: Aquatic pathogenic bacteria; two-fold broth microdilution, 37 °C, 18 h; mean of three independent experiments in duplicates
# Description: as §1
# [5] = system: Nocardia asteroides 08052412; assay: microbe, parasite or virus in culture; type: cell-based; conditions: 18 h
# Description: as §1
# [6] = system: Vibrio brasiiensis; assay: microbe, parasite or virus in culture; type: cell-based; conditions: 18 h
# Description: as §1
# [7] = system: S. Aureus 08032706; assay: microbe, parasite or virus in culture; type: cell-based; conditions: Gram-positive; two-fold broth microdilution, MH broth, 37 °C, 18 h; mean of three independent experiments in duplicates
# Description: as §1
# [8] = system: Candida albicans 08030102; assay: microbe, parasite or virus in culture; type: cell-based; conditions: 08030102, 18 h
# Description: as §1
# [9] = system: Aeromonas veronii; assay: microbe, parasite or virus in culture; type: cell-based; conditions: 18 h
# Description: as §1
# [10] = system: S. Maltophilia 090223; assay: microbe, parasite or virus in culture; type: cell-based; conditions: 090223, 18 h
# Description: as §1
# [11] = system: Vibrio harveyi; assay: microbe, parasite or virus in culture; type: cell-based; conditions: 18 h
# Description: as §1
# [12] = system: E. Coli 08032823; assay: microbe, parasite or virus in culture; type: cell-based; conditions: 08032823, 18 h
# Description: as §1
# [13] = system: Escherichia coli ATCC25922; assay: microbe, parasite or virus in culture; type: cell-based; conditions: ATCC25922, 18 h
# Description: as §1
# [14] = system: S. Aureus 08032615; assay: microbe, parasite or virus in culture; type: cell-based; conditions: Gram-positive; two-fold broth microdilution, MH broth, 37 °C, 18 h; mean of three independent experiments in duplicates
# Description: as §1
# [15] = system: Vibrio cholerae; assay: microbe, parasite or virus in culture; type: cell-based; conditions: 18 h
# Description: as §1
# [16] = system: Aeromonas sobria; assay: microbe, parasite or virus in culture; type: cell-based; conditions: 18 h
# Description: as §1
# [17] = system: Bacillus subtilis 08042313; assay: microbe, parasite or virus in culture; type: cell-based; conditions: 08042313, 18 h
# Description: as §1
# [18] = system: Enterococcus faecium 08052315; assay: microbe, parasite or virus in culture; type: cell-based; conditions: 08052315, 18 h
# Description: as §1
# [19] = system: Candida glabrata 08A802; assay: microbe, parasite or virus in culture; type: cell-based; conditions: 08A802, 18 h
# Description: as §1
# [20] = system: S. Aureus 08032810; assay: microbe, parasite or virus in culture; type: cell-based; conditions: Gram-positive; two-fold broth microdilution, MH broth, 37 °C, 18 h; mean of three independent experiments in duplicates
# Description: as §1
# [21] = system: Proteus mirabilis 1376; assay: microbe, parasite or virus in culture; type: cell-based; conditions: Gram-negative; two-fold broth microdilution, MH broth, 37 °C, 18 h; mean of three independent experiments in duplicates
# Description: as §1
# [22] = system: Edwardsiella tarda; assay: microbe, parasite or virus in culture; type: cell-based; conditions: Aquatic pathogenic bacteria; two-fold broth microdilution, 37 °C, 18 h; mean of three independent experiments in duplicates
# Description: as §1
# [23] = system: P. Aeruginosa 08021015; assay: microbe, parasite or virus in culture; type: cell-based; conditions: Gram-negative; two-fold broth microdilution, MH broth, 37 °C, 18 h; mean of three independent experiments in duplicates
# Description: as §1
# [24] = system: K. Pneumoniae 08031012; assay: microbe, parasite or virus in culture; type: cell-based; conditions: Gram-negative; two-fold broth microdilution, MH broth, 37 °C, 18 h; mean of three independent experiments in duplicates
# Description: as §1
# [25] = system: K. Pneumoniae 08040202; assay: microbe, parasite or virus in culture; type: cell-based; conditions: Gram-negative; two-fold broth microdilution, MH broth, 37 °C, 18 h; mean of three independent experiments in duplicates
# Description: as §1
# [26] = system: E. coli 08040726; assay: Bacterial killing kinetic assay, colony counting; type: cell-based
# Description: The bacterial killing kinetics of the hybrid peptides against E. coli 08040726 was determined by counting the changes in the viable bacterial clones after peptide treatment. The experiment was carried out according to the method described previously with minor modifications. Fresh colonies of the bacteria were incubated in MH broth at 37 °C for 12 h and diluted to 10^6 CFU/in fresh MH broth. The hybrid peptide was added to the bacterial suspension with a final concentration of 1x and 5x corresponding MICs, and incubated at 37 °C for 0, 10, 20, 30, 45, 60, 90, 120, and 180 mins. At each time point, aliquots (50 μL) were removed and diluted with fresh MH broth for 1000 times. […] of the dilutions were coated on MH agar plates, incubated overnight at 37 °C, and the viable colonies were counted. Ampicillin was used as positive control and sterile deionized water was used as negative control.
# [27] = system: established C. albicans biofilm; assay: Biofilm disruption assay, established biofilm (XTT, PI/SYBR Green I); type: cell-based
# Description: TIH3F that has the best antifungal activity among the four peptides was chosen to examine the effect on the C. albicans biofilm formation and the established biofilm using previously described method with minor modifications. In the biofilm inhibition assay, after the incubation at 35 °C, C. Albicans was diluted to 1 × 10^6 CFU/mL in RPMI-1640 medium. Then 2 mL culture was added to each well of 6-well plates with coverslips at the bottom, and incubated at 35 °C in a humid chamber for 3 h. Non-adherent cells were then washed away by PBS, and series concentrations of TIH3F (0, 1, 2, 4 μg/mL) were added into the plate, with amphotericin B as control. The formation of the biofilm was determined by the XTT Cell Proliferation and Cytotoxicity Kit (KeyGEN BioTECH, Nanjing, China) after 36-h incubation. In the biofilm disruption assay, the biofilm was preformed as described above but with a longer incubation time up to 72 h. Then TIH3F and amphotericin B of series concentrations (0, 2.5, 5, 10, 25, 50 μg/mL) was added after non-adherent cells were washed out. The measurement of remaining biofilm was then determined. In order to further confirm the antifungal effect of TIH3F against C. albicans encased in biofilms, the established biofilm was treated with TIH3F (0, 5, 50 μg/mL), washed three times with PBS, and finally stained with 1 mL 1000-fold diluted PI/SYBR Green I at 30 °C in the dark for 20 min. After washing with PBS, the plate was immediately photographed with fluorescence microscope.
# [28] = biological target: trypsin; assay: Trypsin inhibition assay (NBLAN hydrolysis, Dixon method); type: biochemical; conditions: 50 mM Tris–HCl pH 7.8, trypsin 0.1 mg/mL, 5 min pre-incubation at 37 °C, substrate NBLAN 48, 96, 192 μg/mL, 405 nm
# Description: The inhibition effect on the hydrolysis of synthetic chromogenic substrate by trypsin was assayed in 50 mM Tris–HCl, pH 7.8 buffer at room temperature. The trypsin of final concentration of 0.1 mg/mL and different amounts of the hybrid peptide (final concentrations ranging from 0 to 0.16 μg/mL) were pre-incubated for 5 min at 37 °C. N-α-Benzoyl-DL-arginine p-nitroanilide hydrochloride (NBLAN) was used as a substrate for trypsin. The reaction was initiated by the addition of NBLAN with a final concentration of 48, 96 and 192 μg/mL, respectively. The formation of yellow product, p-nitroaniline was monitored continuously at 405 nm[61]. The inhibition constant Ki of the hybrid peptides were determined according to the method of Dixon (1953)[62].
smiles,measurement,setting,value
CC[C@H](C)[C@@H]1NC(=O)[C@H](CO)NC(=O)[C@H](CCCCN)NC(=O)[C@H]([C@@H](C)O)NC(=O)[C@H](Cc2c[nH]c3ccccc23)NC(=O)[C@@H](NC(=O)[C@H](Cc2ccccc2)NC(=O)[C@H](CCCCN)NC(=O)[C@H](CCCCN)NC(=O)[C@H](Cc2ccccc2)NC(=O)[C@H](C)NC(=O)[C@H](CCCNC(=N)N)NC(=O)[C@H](CCCNC(=N)N)NC(=O)[C@H](Cc2ccccc2)NC(=O)[C@H](CO)NC(=O)[C@H](CCCCN)NC(=O)[C@H](Cc2ccccc2)NC(=O)[C@H](Cc2ccccc2)NC(=O)[C@H](CCCNC(=N)N)NC(=O)[C@H](CCCCN)NC(=O)[C@H](Cc2ccccc2)NC(=O)[C@H](Cc2ccccc2)NC(=O)[C@@H](N)CCCCN)CSSC[C@@H](C(=O)O)NC(=O)[C@@H]2CCCN2C(=O)[C@H](CCCCN)NC(=O)[C@@H]2CCCN2C(=O)[C@@H]2CCCN2C1=O [H3TIF] (H-KFFKRFFKSFRRAFKKFCWTKSIPPKPC-OH; disulfide 18-28),MIC E. Coli 08040726 (second line with this strain number),[1],— (no detectable activity in MIC assay in dose of 200 µg/mL or in trypsin inhibition assay at concentration of 160 μg/mL)
same,MIC Staphylococcus epidermidis,[2],— (no detectable activity in MIC assay in dose of 200 µg/mL or in trypsin inhibition assay at concentration of 160 μg/mL)
same,MIC E. Coli 08032813,[3],— (no detectable activity in MIC assay in dose of 200 µg/mL or in trypsin inhibition assay at concentration of 160 μg/mL)
same,MIC Vibrio Parahaemolyticus,[4],2.37 µg/mL
same,MIC Nocardia asteroides 08052412,[5],4.69 µg/mL
same,MIC Vibrio brasiiensis,[6],4.69 µg/mL
same,MIC S. Aureus 08032706,[7],— (no detectable activity in MIC assay in dose of 200 µg/mL or in trypsin inhibition assay at concentration of 160 μg/mL)
same,MIC Candida albicans 08030102,[8],4.69 µg/mL
same,MIC Aeromonas veronii,[9],9.38 µg/mL
same,MIC S. Maltophilia 090223,[10],4.69 µg/mL
same,MIC Vibrio harveyi,[11],18.75 µg/mL
same,MIC E. Coli 08032823,[12],37.5 µg/mL
same,MIC Escherichia coli ATCC25922,[13],37.5 µg/mL
same,MIC S. Aureus 08032615,[14],— (no detectable activity in MIC assay in dose of 200 µg/mL or in trypsin inhibition assay at concentration of 160 μg/mL)
same,MIC Vibrio cholerae,[15],9.38 µg/mL
same,MIC Aeromonas sobria,[16],18.75 µg/mL
same,MIC Bacillus subtilis 08042313,[17],37.5 µg/mL
same,MIC Enterococcus faecium 08052315,[18],9.38 µg/mL
same,MIC Candida glabrata 08A802,[19],9.38 µg/mL
same,MIC S. Aureus 08032810,[20],— (no detectable activity in MIC assay in dose of 200 µg/mL or in trypsin inhibition assay at concentration of 160 μg/mL)
same,MIC Proteus mirabilis 1376,[21],— (no detectable activity in MIC assay in dose of 200 µg/mL or in trypsin inhibition assay at concentration of 160 μg/mL)
same,MIC Edwardsiella tarda,[22],— (no detectable activity in MIC assay in dose of 200 µg/mL or in trypsin inhibition assay at concentration of 160 μg/mL)
same,MIC P. Aeruginosa 08021015,[23],— (no detectable activity in MIC assay in dose of 200 µg/mL or in trypsin inhibition assay at concentration of 160 μg/mL)
same,MIC K. Pneumoniae 08031012,[24],— (no detectable activity in MIC assay in dose of 200 µg/mL or in trypsin inhibition assay at concentration of 160 μg/mL)
same,MIC K. Pneumoniae 08040202,[25],— (no detectable activity in MIC assay in dose of 200 µg/mL or in trypsin inhibition assay at concentration of 160 μg/mL)
same,time of killing toward E. coli,[26]; 1xMIC,≤ 2 h
same,time of killing toward E. coli,[26]; 5xMIC,≤ 0.5 h
same,damage of established C. albicans biofilm,"[27]; 5 μg/mL, biofilm preformed 72 h, XTT metabolic activity, Fig. 2B",evident antifungal activity
same,killing of C. albicans in preformed biofilm,"[27]; 50 μg/mL, PI/SYBR Green I staining, fluorescence microscopy, Fig. 2C",destroy all of the cell membranes
same,Ki,[28],6.5 µM
